Reference: patent publication US11965039B2, “Compstatin analogues and their medical uses” (priority 2018, dated 2024)
Starred links: 1 amine or outer side, 2 acyl side, 3 side chain; linkers in the order of their positions; H or OH if unused. Positions of bridges follow the written chain, without caps; N, C: chain ends. Non-standard residues stand in square brackets, D forms with d. Residues, ends and D or L forms follow the SMILES beside them. Groups on a side chain read outwards from the residue. *: point of attachment. Trp(1-Me) = Cn1cc(C[C@H](N)C(=O)O)c2ccccc21; C18 diacid = O=C(O)CCCCCCCCCCCCCCCCC(=O)*; C16 diacid = O=C(O)CCCCCCCCCCCCCCC(=O)*; γGlu = O=C(O)[C@H](CCC(=O)[*:2])N[*:1]; AEEA = NCCOCCOCC(=O)O; Sar = CNCC(=O)O

Tested on: classical complement pathway
Experiment: In vitro haemolysis assay (inhibition of classical complement pathway)
Type: cell-based, human
Details: human serum, sensitized sheep red blood cells; Table 3, given as upper bounds; read-out: IC50, inhibition of hemolysis
Procedure, shortened: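 Compound dilutions preincubated 15 min at room temperature with diluted human serum (titrated per batch for 70-90% maximal haemolysis), then antibody-sensitized sheep RBC (10^7/well) added for 30 min at 37 °C in Tris/casein buffer, pH 7.4. Stopped with EDTA; haemolysis read at 405 nm; IC50 by 4PL fit.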

`CC[C@H](C)[C@@H]1NC(=O)[C@@H](NC(=O)[C@H](Cc2ccccc2)NC(=O)[C@H](CCC(=O)O)NC(C)=O)CSSC[C@@H](C(=O)N(C)CC(=O)N[C@@H](CCC(=O)O)C(=O)N[C@@H](C)C(=O)NCCOCCOCC(=O)NCCOCCOCC(=O)N[C@@H](CCCCNC(=O)CC[C@H](NC(=O)CNC(=O)CC[C@H](NC(=O)CCCCCCCCCCCCCCCCC(=O)O)C(=O)O)C(=O)O)C(N)=O)NC(=O)[C@H](CCCNC(=N)N)NC(=O)[C@H](Cc2c[nH]cn2)NC(=O)[C@H](CCC(=O)O)NC(=O)CNC(=O)[C@H](Cc2c[nH]c3ccccc23)NC(=O)[C@H](CC(=O)O)NC(=O)[C@H](CCC(N)=O)NC(=O)[C@H](Cc2cn(C)c3ccccc23)NC1=O` [Compound 145] (Ac-EFCI[Trp(1-Me)]QDWGEHRC[Sar]EA[AEEA][AEEA]K([γGlu-Gly-γGlu-C18 diacid])-NH2; disulfide 3-13) and `CC[C@H](C)[C@@H]1NC(=O)[C@@H](NC(=O)[C@H](Cc2ccccc2)NC(=O)[C@H](CCC(=O)O)NC(=O)[C@H](CO)NC(C)=O)CSSC[C@@H](C(=O)N(C)CC(=O)N[C@@H](CCC(=O)O)C(=O)NCC(=O)N[C@@H](CCC(=O)O)C(=O)NCCOCCOCC(=O)NCCOCCOCC(=O)N[C@@H](CCCCNC(=O)CC[C@H](NC(=O)CNC(=O)CC[C@H](NC(=O)CCCCCCCCCCCCCCCCC(=O)O)C(=O)O)C(=O)O)C(N)=O)NC(=O)[C@H](CCCNC(=N)N)NC(=O)[C@H](Cc2c[nH]cn2)NC(=O)[C@H](CCC(=O)O)NC(=O)CNC(=O)[C@H](Cc2c[nH]c3ccccc23)NC(=O)[C@H](CCC(=O)O)NC(=O)[C@H](CCC(N)=O)NC(=O)[C@H](Cc2cn(C)c3ccccc23)NC1=O` [Compound 124] (Ac-SEFCI[Trp(1-Me)]QEWGEHRC[Sar]EGE[AEEA][AEEA]K([γGlu-Gly-γGlu-C18 diacid])-NH2; disulfide 4-14) cannot be ordered by IC50: < 0.1 µM for the first, < 0.1 µM for the second.

`CC[C@H](C)[C@H](NC(=O)[C@H](C)NC(=O)[C@H](CO)NC(=O)[C@H](CO)NC(=O)[C@H](CCC(=O)O)NC(=O)CCCCCCCCCCCCCCC(=O)O)C(=O)N[C@H]1CSSC[C@@H](C(=O)N[C@H](C(=O)N[C@@H](CCC(=O)O)C(=O)NCC(=O)N[C@@H](CCC(=O)O)C(N)=O)[C@@H](C)O)NC(=O)[C@H](CCCNC(=N)N)NC(=O)[C@H](Cc2c[nH]cn2)NC(=O)[C@H](CCC(=O)O)NC(=O)CNC(=O)[C@H](Cc2c[nH]c3ccccc23)NC(=O)[C@H](CC(=O)O)NC(=O)[C@H](CCC(N)=O)NC(=O)[C@H](Cc2c[nH]c3ccccc23)NC(=O)[C@H]([C@@H](C)CC)NC1=O` [Compound 99] ({C16 diacid}-ESSAICIWQDWGEHRCTEGE-NH2; disulfide 6-16) and `CC[C@H](C)[C@@H]1NC(=O)[C@@H](NC(=O)[C@H](Cc2ccccc2)NC(=O)[C@H](CCC(=O)O)NC(=O)[C@H](CO)NC(C)=O)CSSC[C@@H](C(=O)N[C@H](C(=O)N[C@@H](CCC(=O)O)C(=O)NCC(=O)N[C@@H](CCC(=O)O)C(=O)NCC(=O)NCC(=O)NCC(=O)N[C@@H](CCCCNC(=O)CC[C@H](NC(=O)CNC(=O)CC[C@H](NC(=O)CCCCCCCCCCCCCCC(=O)O)C(=O)O)C(=O)O)C(N)=O)[C@@H](C)O)NC(=O)[C@H](CCCNC(=N)N)NC(=O)[C@H](Cc2c[nH]cn2)NC(=O)[C@H](CCC(=O)O)NC(=O)CNC(=O)[C@H](Cc2c[nH]c3ccccc23)NC(=O)[C@H](CC(=O)O)NC(=O)[C@H](CCC(N)=O)NC(=O)[C@H](Cc2cn(C)c3ccccc23)NC1=O` [Compound 131] (Ac-SEFCI[Trp(1-Me)]QDWGEHRCTEGEGGGK([γGlu-Gly-γGlu-C16 diacid])-NH2; disulfide 4-14) cannot be ordered by IC50: < 0.25 µM for the first, < 0.1 µM for the second.

`CC[C@H](C)[C@@H]1NC(=O)[C@@H](NC(=O)[C@H](Cc2ccc(O)cc2)NC(=O)[C@H](CCC(=O)O)NC(=O)[C@H](CO)NC(C)=O)CSSC[C@@H](C(=O)N(C)CC(=O)N[C@@H](CCC(=O)O)C(=O)N[C@@H](C)C(N)=O)NC(=O)[C@H](CCCNC(=N)N)NC(=O)[C@H](Cc2c[nH]cn2)NC(=O)[C@H](CCC(=O)O)NC(=O)CNC(=O)[C@H](Cc2c[nH]c3ccccc23)NC(=O)[C@H](CC(=O)O)NC(=O)[C@H](CCC(N)=O)NC(=O)[C@H](Cc2cn(C)c3ccccc23)NC1=O` [Compound 71] (Ac-SEYCI[Trp(1-Me)]QDWGEHRC[Sar]EA-NH2; disulfide 4-14) and `CC[C@H](C)[C@@H]1NC(=O)[C@@H](NC(=O)[C@H](Cc2ccc(O)cc2)NC(=O)[C@H](C)NC(=O)[C@H](CO)NC(=O)CNC(=O)[C@H](CCC(=O)O)NC(C)=O)CSSC[C@@H](C(=O)N[C@H](C(=O)N[C@@H](CCC(=O)O)C(N)=O)[C@@H](C)O)NC(=O)[C@H](CCCNC(=N)N)NC(=O)[C@H](Cc2c[nH]cn2)NC(=O)[C@H](CCC(=O)O)NC(=O)CNC(=O)[C@H](Cc2c[nH]c3ccccc23)NC(=O)[C@H](CC(=O)O)NC(=O)[C@H](CCC(N)=O)NC(=O)[C@H](Cc2cn(C)c3ccccc23)NC1=O` [Compound 59] (Ac-EGSAYCI[Trp(1-Me)]QDWGEHRCTE-NH2; disulfide 6-16) cannot be ordered by IC50: < 0.1 µM for the first, < 0.1 µM for the second.

`CC[C@H](C)[C@H](NC(C)=O)C(=O)N[C@H]1CSSC[C@@H](C(=O)N[C@H](C(N)=O)[C@@H](C)O)NC(=O)[C@H](CCCNC(=N)N)NC(=O)[C@H](Cc2c[nH]cn2)NC(=O)[C@H](CCCNC(=N)N)NC(=O)CNC(=O)[C@H](Cc2c[nH]c3ccccc23)NC(=O)[C@H](CC(=O)O)NC(=O)[C@H](CCC(N)=O)NC(=O)[C@H](Cc2c[nH]c3ccccc23)NC(=O)[C@H]([C@@H](C)CC)NC1=O` [Compound 18] (Ac-ICIWQDWGRHRCT-NH2; disulfide 2-12) and `CC[C@H](C)[C@@H]1NC(=O)[C@@H](NC(=O)[C@H](Cc2ccccc2)NC(C)=O)CSSC[C@@H](C(=O)N[C@H](C(=O)NCC(=O)N[C@@H](C)C(=O)N[C@@H](CCC(=O)O)C(N)=O)[C@@H](C)O)NC(=O)[C@H](CCCNC(=N)N)NC(=O)[C@H](Cc2c[nH]cn2)NC(=O)[C@H](CCC(=O)O)NC(=O)CNC(=O)[C@H](Cc2c[nH]c3ccccc23)NC(=O)[C@H](CC(=O)O)NC(=O)[C@H](CCC(N)=O)NC(=O)[C@H](Cc2c[nH]c3ccccc23)NC1=O` [Compound 43] (Ac-FCIWQDWGEHRCTGAE-NH2; disulfide 2-12) cannot be ordered by IC50: < 0.1 µM for the first, < 0.1 µM for the second.

`CC[C@H](C)[C@@H]1NC(=O)[C@@H](NC(=O)[C@H](Cc2ccccc2)NC(=O)[C@H](CCC(=O)O)NC(=O)[C@H](CO)NC(C)=O)CSSC[C@@H](C(=O)N[C@H](C(=O)N[C@@H](CCC(=O)O)C(=O)NCC(=O)N[C@@H](CCC(=O)O)C(=O)NCCOCCOCC(=O)NCCOCCOCC(=O)N[C@@H](CCCCNC(=O)CC[C@H](NC(=O)CNC(=O)CC[C@H](NC(=O)CCCCCCCCCCCCCCCCC(=O)O)C(=O)O)C(=O)O)C(N)=O)[C@@H](C)O)NC(=O)[C@H](CCCNC(=N)N)NC(=O)[C@H](Cc2c[nH]cn2)NC(=O)[C@H](CCC(=O)O)NC(=O)CNC(=O)[C@H](Cc2c[nH]c3ccccc23)NC(=O)[C@H](CC(=O)O)NC(=O)[C@H](CCC(N)=O)NC(=O)[C@H](Cc2cn(C)c3ccccc23)NC1=O` [Compound 126] (Ac-SEFCI[Trp(1-Me)]QDWGEHRCTEGE[AEEA][AEEA]K([γGlu-Gly-γGlu-C18 diacid])-NH2; disulfide 4-14) and `CC[C@H](C)[C@@H]1NC(=O)[C@@H](NC(=O)[C@H](Cc2ccccc2)NC(=O)[C@H](CCC(=O)O)NC(=O)[C@H](CO)NC(C)=O)CSSC[C@@H](C(=O)N(C)CC(=O)N[C@@H](CCC(=O)O)C(=O)NCC(=O)N[C@@H](CCC(=O)O)C(=O)N[C@@H](CO)C(=O)N[C@@H](CCC(=O)O)C(=O)N[C@@H](CO)C(=O)N[C@@H](CCCCNC(=O)CC[C@H](NC(=O)CNC(=O)CC[C@H](NC(=O)CCCCCCCCCCCCCCCCC(=O)O)C(=O)O)C(=O)O)C(N)=O)NC(=O)[C@H](CCCNC(=N)N)NC(=O)[C@H](Cc2c[nH]cn2)NC(=O)[C@H](CCC(=O)O)NC(=O)CNC(=O)[C@H](Cc2c[nH]c3ccccc23)NC(=O)[C@H](CC(=O)O)NC(=O)[C@H](CCC(N)=O)NC(=O)[C@H](Cc2cn(C)c3ccccc23)NC1=O` [Compound 139] (Ac-SEFCI[Trp(1-Me)]QDWGEHRC[Sar]EGESESK([γGlu-Gly-γGlu-C18 diacid])-NH2; disulfide 4-14) cannot be ordered by IC50: < 0.1 µM for the first, < 0.1 µM for the second.

`CC[C@H](C)[C@@H]1NC(=O)[C@@H](NC(=O)CN(C)C(=O)[C@H](CCC(=O)O)NC(=O)[C@H](CO)NC(C)=O)CSSC[C@@H](C(=O)N(C)CC(=O)N[C@@H](CCC(=O)O)C(=O)N[C@@H](C)C(N)=O)NC(=O)[C@H](CCCNC(=N)N)NC(=O)[C@H](Cc2c[nH]cn2)NC(=O)[C@H](CCC(=O)O)NC(=O)CNC(=O)[C@H](Cc2c[nH]c3ccccc23)NC(=O)[C@H](CCC(=O)O)NC(=O)[C@H](CCC(N)=O)NC(=O)[C@H](Cc2cn(C)c3ccccc23)NC1=O` [Compound 90] (Ac-SE[Sar]CI[Trp(1-Me)]QEWGEHRC[Sar]EA-NH2; disulfide 4-14) and `CC[C@H](C)[C@@H]1NC(=O)[C@@H](NC(=O)[C@H](Cc2ccccc2)NC(=O)[C@H](C)NC(=O)[C@H](CO)NC(=O)CNC(=O)[C@H](CCC(=O)O)NC(C)=O)CSSC[C@@H](C(=O)N[C@@H](CCC(=O)O)C(=O)NCC(=O)N[C@@H](CCC(=O)O)C(N)=O)NC(=O)[C@H](CCCNC(=N)N)NC(=O)[C@H](Cc2c[nH]cn2)NC(=O)[C@H](CCC(=O)O)NC(=O)CNC(=O)[C@H](Cc2c[nH]c3ccccc23)NC(=O)[C@H](CC(=O)O)NC(=O)[C@H](CCC(N)=O)NC(=O)[C@H](Cc2cn(C)c3ccccc23)NC1=O` [Compound 58] (Ac-EGSAFCI[Trp(1-Me)]QDWGEHRCEGE-NH2; disulfide 6-16) cannot be ordered by IC50: < 0.25 µM for the first, < 0.1 µM for the second.

Same assay, conditions: human serum, sensitized sheep red blood cells; Table 4, valine 3 vs isoleucine 3 pairs; read-out: CP hemolysis IC50

In the case of `CC[C@H](C)[C@H](NC(C)=O)C(=O)N[C@H]1CSSC[C@@H](C(=O)N[C@@H](CO)C(N)=O)NC(=O)[C@H](CCCNC(=N)N)NC(=O)[C@H](Cc2c[nH]cn2)NC(=O)[C@H](CCC(=O)O)NC(=O)CNC(=O)[C@H](Cc2c[nH]c3ccccc23)NC(=O)[C@H](CC(=O)O)NC(=O)[C@H](CCC(N)=O)NC(=O)[C@H](Cc2c[nH]c3ccccc23)NC(=O)[C@H](C(C)C)NC1=O` [G, reference compound] (Ac-ICVWQDWGEHRCS-NH2; disulfide 2-12), the IC50 is reported as 0.18 µM.
